Results reported in PMC11258486, “Phase 1 dose escalation study of the MDM2 inhibitor milademetan as monotherapy and in combination with azacitidine in patients with myeloid malignancies” (Cancer Medicine, 2024).
Where a name gives a salt, the structure may show the parent alone.

Tested on: high‐risk MDS
Assay: Treatment response in participants with high‐risk MDS (2006 International Working Group criteria)
Assay type: in vivo, human
Details: Full Analysis Set
Procedure: Treatment efficacy was assessed according to the 2017 European Leukemia Net recommendations for AML[23] and the 2006 International Working Group response criteria for MDS.[24] In participants with AML, efficacy outcomes included complete remission (CR), CR with incomplete blood count recovery (CRi), composite complete remission (CRc; CR + CRi), morphologic leukemia‐free state (MLFS), partial remission (PR), overall response rate (CRc + MLFS+PR), stable disease (SD), and treatment failure. Bone marrow biopsies/aspirates were obtained from all participants with AML on Day 1 of Cycles 2 and 3 and once every cycle until response and on Day 1 of Cycles 6, 9, and 12 in responding participants.

CC1(C)CCC2(CC1)N[C@@H](C(=O)N[C@@H]1CC[C@@H](C(N)=O)OC1)[C@H](c1ccnc(Cl)c1F)[C@]21C(=O)Nc2cc(Cl)ccc21 [Milademetan monotherapy, milademetan tosylate hydrate]
MDS: Marrow CR: 1 (11%) n (%) | MDS: SD: 2 (22%) n (%)
